Assay results from patent EP0747346B1, “N-acyl-2 aryl cyclopropylmethylamine derivatives as melatonergics” (BRISTOL-MYERS SQUIBB COMPANY, priority 1995, dated 1996).

Each molecule was assayed against T1, human ML1A (Homo sapiens, UniProt P48039) (assay: Measurement of melatonergic binding: displacement of 2-[125I]-iodomelatonin from membranes of COS-1 cells transfected with human ML1A cDNA). Settings: Binding affinity (IC50) at the human melatonin receptor, Table 5: displacement of 2-[125I]-Iodomelatonin; Formula I compounds with R1 and R = H, G = methylene.
T1 construct: expressed in transfected cells; host or cells: COS-1 cells, transient transfection (DEAE-dextran) with pcDNAI; membrane homogenates
Experimental: Example 145 (Measurement of Melatonergic Binding)
The melatonergic binding of the compounds of Formula I was determined by a modification of the method of Reppert, S. M. et al. (Neuron, Volume 13, pages 1177-1185, 1994). […] The reagents, membranes, and other parameters used in the assay are described below: Reagents: • (a) 50 mM Tris buffer containing 12.5 mM MgCl2, and 2 mM EDTA (pH 7.4 at 37 °C). • (b) Wash buffer: 20 mM Tris base containing 2 mM MgCl2 (pH 7.4 at room temperature). • (c) 6-Chloromelatonin (10^-5 M final concentration). • (d) 2-[^125I]-Iodomelatonin (100 pM final concentration). (Source: NEN) Membrane preparation: The cDNA (human ML1A) in pcDNAI was introduced into COS-1 cells by the DEAE-dextran method. Three days later, after media removal, the plates were washed with buffered saline; the cells removed using Hank's balanced salt solution and pelleted. The supernant was discarded and the pellets frozen. For membrane homogenates, the pellets were thawed and resuspended in TME buffer, Tris base, MgCl2, EDTA (pH 7.4 at 37 °C), and supplemented with aprotinin, leupeptin, and phenylmethylsulfonyl fluoride. The cells were homogenized and centrifuged; the resulting pellet resuspended in TME and frozen. At assay, the small aliquot was thawed on ice and resuspended in TME buffer. Incubation: 37 °C for 1 hour. Reaction is terminated by filtration.

T1 sequence (P48039 whole entry): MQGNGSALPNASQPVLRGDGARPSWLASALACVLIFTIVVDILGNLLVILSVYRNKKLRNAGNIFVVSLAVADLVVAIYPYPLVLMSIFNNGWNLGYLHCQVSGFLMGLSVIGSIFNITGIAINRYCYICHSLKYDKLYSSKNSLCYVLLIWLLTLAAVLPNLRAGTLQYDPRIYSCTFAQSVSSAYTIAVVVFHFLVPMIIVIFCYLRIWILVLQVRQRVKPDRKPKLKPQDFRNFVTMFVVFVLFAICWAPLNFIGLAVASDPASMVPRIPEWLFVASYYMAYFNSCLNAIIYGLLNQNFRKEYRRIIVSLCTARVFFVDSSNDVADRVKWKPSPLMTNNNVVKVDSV

Molecule	IC50 [nM]
CCCC(=O)NC[C@@H]1C[C@H]1c1cc(F)ccc1Br (single isomer, unassigned) [Example 66]	5 to 40
CCCC(=O)NC[C@@H]1C[C@H]1c1cccc(F)c1 (racemic) [Example 44]	40 to 250
CCCC(=O)NC[C@@H]1C[C@H]1c1cccc(OC(F)(F)F)c1 (single isomer, unassigned) [Example 64]	5 to 40
CCCC(=O)NC[C@@H]1C[C@H]1c1cc(F)ccc1I (single isomer, unassigned) [Example 70]	40 to 250
CCCC(=O)NC[C@@H]1C[C@H]1c1cccc(C(F)(F)C(F)(F)F)c1 (single isomer, unassigned) [Example 89]	40 to 250
CCCC(=O)NC[C@@H]1C[C@H]1c1ccc(I)c(OC(F)(F)F)c1 (single isomer, unassigned) [Example 69]	5 to 40
CCCC(=O)NC[C@@H]1C[C@H]1c1cccc(O)c1 (single isomer, unassigned) [Example 79]	40 to 250

Continued, values first:

IC50 [nM]	Molecule
40 to 250	CCCC(=O)NC[C@@H]1C[C@H]1c1cccc(OC(C)C)c1 (racemic) [Example 8, (trans)-N-[[2-[3-(Methylethoxy)phenyl]cyclopropyl]methyl] butanamide]
40 to 250	CCCC(=O)NC[C@@H]1C[C@H]1c1ccc(I)c(F)c1 (single isomer, unassigned) [Example 71, (-)-(trans)-N-[[2-(3-Fluoro-4-iodophenyl)cycloprop-1-yl]methyl] butanamide]

Same assay, conditions: Binding affinity (IC50) at the human melatonin receptor, Table 6: displacement of 2-[125I]-Iodomelatonin; Formula I compounds with X = OCH3, Y and Z = H, R1 = H

Molecule	IC50 [nM]
CCCC(=O)NC(C)[C@@H]1C[C@H]1c1cccc(OC)c1 (single isomer, unassigned; (-)) [Example 14, (-)-(trans)-N-[1-[2-(3-Methoxyphenyl)cyclopropyl]ethyl] butanamide]	40 to 250
CCCC(=O)NC[C@H]1[C@H](c2cccc(OC)c2)C1(F)F (racemic) [Example 12, (±)-(trans)-[2,2-Difluoro-3-(3-methoxyphenyl)-cyclopropylmethyl] butanamide]	< 5

The next lines start with the values.

IC50 [nM]	Molecule
5 to 40	CCCC(=O)NC(C)[C@@H]1C[C@H]1c1cccc(OC)c1 (single isomer, unassigned) [Example 136]
250 to 600	CCCC(=O)NC[C@H]1[C@H](c2cccc(OC)c2)C1(C)C (racemic) [Example 17, (trans)-N-[[3-(3-methoxyphenyl)-2,2-dimethyl-1-cyclopropyl]methyl]butanamide]

Same assay, conditions: Table 4 (continued): displacement of 2-[125I]-Iodomelatonin; Formula I compounds with X = OCH3, R = H, G = methylene

Molecule	IC50 [nM]
COc1cccc([C@@H]2C[C@H]2CNC(=O)CC(F)(F)F)c1 (single isomer, unassigned) [Example 42, (-)-(trans)-3,3,3-Trifluor-N-[[2-(3-methoxyphenyl)cycloprop-1-yl]methyl] propanamide]	< 5
CCCC(=O)NC[C@@H]1C[C@H]1c1ccc(Cl)c(OC)c1 (racemic) [Example 27, (trans)-N-[[2-(4-Chloro-3-methoxyphenyl)cyclopropyl]methyl] butanamide]	< 5
COc1cccc([C@@H]2C[C@H]2CNC(C)=O)c1 [Example 41, (-)-(trans)-N-[[2-(3-Methoxyphenyl)cycloprop-1-yl]methyl] acetamide]	< 5
CNC(=O)NC[C@@H]1C[C@H]1c1cccc(OC)c1 [Example 39, (-)-(trans)-N-[[2-(3-Methoxyphenyl)cycloprop-1-yl]methyl]-N'-methyl urea]	< 5
COc1cccc([C@@H]2C[C@H]2CNC(=O)C2CC2)c1 [Example 36, (-)-(trans)-N-[[2-(3-Methoxyphenyl)cycloprop-1-yl]methyl]cyclopropane carboxamide]	< 5
COc1cccc([C@@H]2C[C@H]2CNC(=O)C2CCCC2)c1 (single isomer, unassigned) [Example 37]	250 to 600

Second part, the molecule after the results:

IC50 [nM]	Molecule
5 to 40	CCCC(=O)NC[C@@H]1C[C@H]1c1ccc(I)c(OC)c1 [Example 33, (-)-(trans)-N-[[2-(4-Iodo-3-methoxyphenyl)cycloprop-1-yl]methyl] butanamide]
< 5	CCCC(=O)NC[C@@H]1C[C@H]1c1cc(OC)ccc1I [Example 32, (-)-(trans)-N-[[2-(2-Iodo-5-methoxyphenyl)cyclopropyl]methyl] butanamide]
5 to 40	COc1cccc([C@@H]2C[C@H]2CNC(=O)CCCCl)c1 (single isomer, unassigned) [Example 35]
5 to 40	CCCC(=O)NC[C@@H]1C[C@H]1c1cc(OC)ccc1-c1ccc(C(F)(F)F)cc1 [Example 34, (-)-(trans)-N-[[2-[4-Methoxy-4'-(trifluoromethyl) [1,1'-biphenyl]-2yl]cycloprop-1-yl]methyl] butanamide]

Same assay, conditions: displacement of 2-[125I]-Iodomelatonin (100 pM); COS-1 membranes, human ML1A; 37 °C for 1 hour

Molecule	IC50 [nM]
CCCC(=O)NC[C@@H]1C[C@H]1c1cc(OC)ccc1C#N [Example 10, (-)-(trans)-N-[[2-(2-Cyano-5-methoxyphenyl]cyclopropyl]methyl] butanamide]	5 to 40
CCCC(=O)NC[C@@H]1C[C@H]1c1cc(OC)ccc1C#Cc1ccccc1 (single isomer, unassigned) [Example 9a]	< 5
CCCC(=O)NC[C@@H]1C[C@H]1c1cccc(OC)c1 (single isomer, unassigned) [Example 3a, (+)-(trans)-N-[[2-(3-Methoxyphenyl)cyclopropyl]methyl]butanamide]	5 to 40
CCCC(=O)NC[C@@H]1C[C@H]1c1cccc(OC)c1 [Example 3b, (-)-(trans)-N-[[2-(3-Methoxyphenyl)cyclopropyl]methyl] butanamide]	< 5
CCCC(=O)NC[C@@H]1C[C@H]1c1cc(OC)ccc1NC(=O)CCC (relative stereo) [Example 13, (trans)-N-[[2-(2-Butyrylamino-5-methoxyphenyl)cyclopropyl]methyl] butanamide]	250 to 600

Further lines, results first:

IC50 [nM]	Molecule
< 5	CCCC(=O)NC[C@@H]1C[C@H]1c1cc(OC)c(Br)cc1Br (relative stereo) [Example 5, (trans)-N-[[2-(2,4-Dibromo-5-methoxyphenyl)cyclopropyl]methyl] butanamide]
5 to 40	COc1cccc([C@@H]2C[C@H]2CNC(=O)C(C)C)c1 [Example 22, (-)-(trans)-N-[[2-(3-Methoxyphenyl)cyclopropyl]methyl]-2-methylpropanamide]
5 to 40	CCCC(=O)NC[C@@H]1C[C@H]1c1cc(OC)ccc1CCc1ccccc1 (single isomer, unassigned) [Example 9b]
5 to 40	CCCC(=O)NC[C@@H]1C[C@H]1c1cccc(OCC2C(c3cccc(OC)c3)C2(C)C)c1 (some centres unmarked) [Example 131]
5 to 40	CCCC(=O)NC[C@@H]1C[C@H]1c1cc(OC)ccc1-c1ccccc1 [Example 11, (-)-(trans)-N-[[2-(2-Phenyl-5-methoxyphenyl]cyclopropyl]methyl] butanamide]
< 5	CCCC(=O)NC[C@@H]1C[C@H]1c1cccc(OCC2CC2c2cccc(OC)c2)c1 (mixture of isomers) [Example 132, (trans)-N-[[2-[3-[[2-(3-Methoxyphenyl)cycloprop-1-yl]methoxy]phenyl]cycloprop-1-yl]methyl] butanamide]

Same assay, conditions: read-out: Binding affinity (IC50) at the human melatonin receptor; Table 5: displacement of 2-[125I]-Iodomelatonin; Formula I compounds with R1 and R = H, G = methylene

IC50 [nM]	Molecule
< 5	(trans)-N-[2-[(3-Trideuteromethoxyphenyl)cycloprop-1-yl]methyl] butanamide [Example 111]
